Experimental data taken from the supplement of paper PMC10307832.

Experiments:
Test in all cases: relative viability (nuclei count vs DMSO), 5 days (fraction); higher = more cells survive
NCI-H1666 = test system: NCI-H1666
Summary of the method: (§1)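 Lung cancer cell lines, seeded in 1536-well plates, were treated the following day by pin tool with a single drug or with five library-drug doses (not always all listed) in √10 steps on top of a fixed anchor-drug dose. Cells were fixed and nuclei stained in one step after 5 days, and nuclei were counted. Relative viability is the nuclei count for treated wells divided by that for vehicle wells, reported as medians of duplicate plates.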

CAL-12T = test system: CAL-12T
Summary of the method: as §1

NCI-H1395 = test system: NCI-H1395
Summary of the method: as §1

LCLC-103H = test system: LCLC-103H
Summary of the method: as §1

NCI-H647 = test system: NCI-H647
Summary of the method: as §1

NCI-H2170 = test system: NCI-H2170
Summary of the method: as §1

NCI-H1993 = test system: NCI-H1993
Summary of the method: as §1

NCI-H1651 = test system: NCI-H1651
Summary of the method: as §1

NCI-H2347 = test system: NCI-H2347
Summary of the method: as §1

NCI-H2085 = test system: NCI-H2085
Summary of the method: as §1

ABC-1 = test system: ABC-1
Summary of the method: as §1

HCC-44 = test system: HCC-44
Summary of the method: as §1

NCI-H23 = test system: NCI-H23
Summary of the method: as §1

NCI-H2342 = test system: NCI-H2342
Summary of the method: as §1

ChaGo-K-1 = test system: ChaGo-K-1
Summary of the method: as §1

NCI-H322M = test system: NCI-H322M
Summary of the method: as §1

NCI-H1355 = test system: NCI-H1355
Summary of the method: as §1

201T = test system: 201T
Summary of the method: as §1

HOP-62 = test system: HOP-62
Summary of the method: as §1

LC-2-ad = test system: LC-2-ad
Summary of the method: as §1

NCI-H838 = test system: NCI-H838
Summary of the method: as §1

Q: How did the relative viability (NCI-H1666; first compound 0.08 µM) turn out when `CCCCCCCCCCCC1=C(O)C(=O)C=C(O)C1=O` [Embelin] + NC(=O)Nc1cc(-c2cccc(F)c2)sc1C(=O)N[C@H]1CCCNC1 [AZD7762] (partner 0.2 µM) was run?
A: 0.871

Q: And the relative viability (NCI-H1666; first compound 0.8 µM)?
A: 0.885

Q: What about the relative viability (NCI-H1666; first compound 2.53 µM) of the same compound?
A: 0.782

Q: What about the relative viability (NCI-H1666; first compound 8 µM) of the same compound?
A: 0.922

Q: And the relative viability (CAL-12T; first compound 0.08 µM)?
A: 0.641

Q: And the relative viability (CAL-12T; first compound 0.8 µM)?
A: 0.697

Q: And the relative viability (CAL-12T; first compound 2.53 µM)?
A: 0.61

Q: And the relative viability (CAL-12T; first compound 8 µM)?
A: 0.676

Q: And the relative viability (NCI-H1395; first compound 0.08 µM)?
A: 0.434

Q: What about the relative viability (NCI-H1395; first compound 0.8 µM) of the same compound?
A: 0.425

Q: What about the relative viability (NCI-H1395; first compound 2.53 µM) of the same compound?
A: 0.384

Q: And the relative viability (NCI-H1395; first compound 8 µM)?
A: 0.366

Q: And the relative viability (LCLC-103H; first compound 0.08 µM)?
A: 0.79

Q: What about the relative viability (LCLC-103H; first compound 0.8 µM) of the same compound?
A: 0.866

Q: And the relative viability (LCLC-103H; first compound 2.53 µM)?
A: 0.886

Q: And the relative viability (LCLC-103H; first compound 8 µM)?
A: 0.684

Q: And the relative viability (NCI-H647; first compound 0.08 µM)?
A: 0.379

Q: And the relative viability (NCI-H647; first compound 0.8 µM)?
A: 0.674

Q: And the relative viability (NCI-H647; first compound 2.53 µM)?
A: 0.365

Q: And the relative viability (NCI-H647; first compound 8 µM)?
A: 0.309

Q: And the relative viability (NCI-H2170; first compound 0.08 µM)?
A: 0.906

Q: What about the relative viability (NCI-H2170; first compound 0.8 µM) of the same compound?
A: 0.958

Q: And the relative viability (NCI-H2170; first compound 2.53 µM)?
A: 1.06

Q: And the relative viability (NCI-H2170; first compound 8 µM)?
A: 0.914

Q: What about the relative viability (NCI-H1993; first compound 0.08 µM) of the same compound?
A: 0.821

Q: What about the relative viability (NCI-H1993; first compound 0.8 µM) of the same compound?
A: 0.723

Q: What about the relative viability (NCI-H1993; first compound 2.53 µM) of the same compound?
A: 0.89

Q: What about the relative viability (NCI-H1993; first compound 8 µM) of the same compound?
A: 0.606

Q: And the relative viability (NCI-H1651; first compound 0.08 µM)?
A: 0.452

Q: What about the relative viability (NCI-H1651; first compound 0.8 µM) of the same compound?
A: 0.549

Q: What about the relative viability (NCI-H1651; first compound 2.53 µM) of the same compound?
A: 0.527

Q: And the relative viability (NCI-H1651; first compound 8 µM)?
A: 0.46

Q: And the relative viability (NCI-H2347; first compound 0.08 µM)?
A: 0.841

Q: And the relative viability (NCI-H2347; first compound 0.8 µM)?
A: 0.85

Q: And the relative viability (NCI-H2347; first compound 2.53 µM)?
A: 0.722

Q: What about the relative viability (NCI-H2347; first compound 8 µM) of the same compound?
A: 0.67

Q: What about the relative viability (NCI-H2085; first compound 0.08 µM) of the same compound?
A: 0.956

Q: What about the relative viability (NCI-H2085; first compound 0.8 µM) of the same compound?
A: 1.09

Q: And the relative viability (NCI-H2085; first compound 2.53 µM)?
A: 0.93

Q: What about the relative viability (NCI-H2085; first compound 8 µM) of the same compound?
A: 1.03

Q: What about the relative viability (ABC-1; first compound 0.08 µM) of the same compound?
A: 0.701

Q: What about the relative viability (ABC-1; first compound 0.8 µM) of the same compound?
A: 1.01

Q: And the relative viability (ABC-1; first compound 2.53 µM)?
A: 0.875

Q: And the relative viability (ABC-1; first compound 8 µM)?
A: 0.856

Q: And the relative viability (HCC-44; first compound 0.08 µM)?
A: 1.07

Q: What about the relative viability (HCC-44; first compound 0.8 µM) of the same compound?
A: 0.994

Q: What about the relative viability (HCC-44; first compound 2.53 µM) of the same compound?
A: 0.999

Q: And the relative viability (HCC-44; first compound 8 µM)?
A: 1.11

Q: And the relative viability (NCI-H23; first compound 0.08 µM)?
A: 0.27

Q: What about the relative viability (NCI-H23; first compound 0.8 µM) of the same compound?
A: 0.297

Q: And the relative viability (NCI-H23; first compound 2.53 µM)?
A: 0.3

Q: And the relative viability (NCI-H23; first compound 8 µM)?
A: 0.248

Q: And the relative viability (NCI-H2342; first compound 0.08 µM)?
A: 0.47

Q: What about the relative viability (NCI-H2342; first compound 0.8 µM) of the same compound?
A: 0.514

Q: And the relative viability (NCI-H2342; first compound 2.53 µM)?
A: 0.546

Q: What about the relative viability (NCI-H2342; first compound 8 µM) of the same compound?
A: 0.456

Q: And the relative viability (ChaGo-K-1; first compound 0.08 µM)?
A: 0.861

Q: And the relative viability (ChaGo-K-1; first compound 0.8 µM)?
A: 0.922

Q: What about the relative viability (ChaGo-K-1; first compound 2.53 µM) of the same compound?
A: 0.922

Q: And the relative viability (ChaGo-K-1; first compound 8 µM)?
A: 0.874

Q: What about the relative viability (NCI-H322M; first compound 0.08 µM) of the same compound?
A: 0.585

Q: And the relative viability (NCI-H322M; first compound 0.8 µM)?
A: 0.632

Q: What about the relative viability (NCI-H322M; first compound 2.53 µM) of the same compound?
A: 0.568

Q: And the relative viability (NCI-H322M; first compound 8 µM)?
A: 0.472

Q: What about the relative viability (NCI-H1355; first compound 0.08 µM) of the same compound?
A: 0.821

Q: And the relative viability (NCI-H1355; first compound 0.8 µM)?
A: 0.802

Q: And the relative viability (NCI-H1355; first compound 2.53 µM)?
A: 0.836

Q: What about the relative viability (NCI-H1355; first compound 8 µM) of the same compound?
A: 0.743

Q: And the relative viability (201T; first compound 0.08 µM)?
A: 0.713

Q: And the relative viability (201T; first compound 0.8 µM)?
A: 0.634

Q: What about the relative viability (201T; first compound 2.53 µM) of the same compound?
A: 0.67

Q: What about the relative viability (201T; first compound 8 µM) of the same compound?
A: 0.61

Q: What about the relative viability (HOP-62; first compound 0.08 µM) of the same compound?
A: 0.384

Q: What about the relative viability (HOP-62; first compound 0.8 µM) of the same compound?
A: 0.568

Q: What about the relative viability (HOP-62; first compound 2.53 µM) of the same compound?
A: 0.734

Q: And the relative viability (HOP-62; first compound 8 µM)?
A: 0.363

Q: What about the relative viability (LC-2-ad; first compound 0.08 µM) of the same compound?
A: 0.884

Q: And the relative viability (LC-2-ad; first compound 0.8 µM)?
A: 0.888

Q: And the relative viability (LC-2-ad; first compound 2.53 µM)?
A: 0.916

Q: What about the relative viability (LC-2-ad; first compound 8 µM) of the same compound?
A: 0.814

Q: And the relative viability (NCI-H838; first compound 0.08 µM)?
A: 0.946

Q: What about the relative viability (NCI-H838; first compound 0.8 µM) of the same compound?
A: 1.05

Q: What about the relative viability (NCI-H838; first compound 2.53 µM) of the same compound?
A: 0.912

Q: What about the relative viability (NCI-H838; first compound 8 µM) of the same compound?
A: 0.992
